Source: US20250000786A1, “SENOTHERAPY COMPOSITION CONTAINING CAMELLIA SINENSIS EXTRACT” (AMOREPACIFIC CORPORATION, priority 2023, published 2025)

Key:
[1] = test system: senescent human fibroblasts; assay: Cell death by CCK-8 in senescence-induced fibroblasts; type: cell-based; conditions: 72 hours
Experimental: Human fibroblasts were cultured in a 6-well plate culture medium. Senescent cells were prepared by inducing senescence by culturing the fibroblasts in DMEM (containing 10% FBS) medium containing doxorubicin (100 ng/ml) and insulin-like growth factor 1 (IGF-1) (100 ng/ml) for 4 days. Then, the same medium was treated with a positive control material (ABT737, 1-10 uM) and the tea tree root extract (50-150 ppm) and cultured for 72 hours. The ABT737 is a Bcl-2 inhibitor and a representative senolytic. Young cells were treated with experimental materials in DMEM medium without inducing senescence and cultured for 72 hours. In order to confirm the senolytic efficacy of the treatment with the tea tree root extract, the medium was replaced with a medium diluted 1/100 with Cell counting kit-8 (CCK-8, dojindo), cultured for 1 hour, and then the absorbance was measured at 540 nm. Human fibroblasts were cultured in a 6-well plate culture medium. […] In order to confirm the senolytic efficacy of the material treated with the tea tree root extract, the medium was replaced with a medium diluted 1/100 with Cell counting kit-8 (CCK-8, dojindo), cultured for 1 hour, and then the absorbance was measured at 540 nm.

[2] = test system: young human fibroblasts; assay: Cell death by CCK-8 in young fibroblasts; type: cell-based; conditions: concentration of 50 ppm or higher, 72 hours
Experimental: Human fibroblasts were cultured in a 6-well plate culture medium. Senescent cells were prepared by inducing senescence by culturing the fibroblasts in DMEM (containing 10% FBS) medium containing doxorubicin (100 ng/ml) and insulin-like growth factor 1 (IGF-1) (100 ng/ml) for 4 days. Then, the same medium was treated with a positive control material (ABT737, 1-10 uM) and the tea tree root extract (50-150 ppm) and cultured for 72 hours. The ABT737 is a Bcl-2 inhibitor and a representative senolytic. Young cells were treated with experimental materials in DMEM medium without inducing senescence and cultured for 72 hours.
In order to confirm the senolytic efficacy of the treatment with the tea tree root extract, the medium was replaced with a medium diluted 1/100 with Cell counting kit-8 (CCK-8, dojindo), cultured for 1 hour, and then the absorbance was measured at 540 nm.
Human fibroblasts were cultured in a 6-well plate culture medium. […]
In order to confirm the senolytic efficacy of the material treated with the tea tree root extract, the medium was replaced with a medium diluted 1/100 with Cell counting kit-8 (CCK-8, dojindo), cultured for 1 hour, and then the absorbance was measured at 540 nm.

With `O=C(O[C@@H]1Cc2c(O)cc(O)cc2O[C@@H]1c1cc(O)c(O)c(O)c1)c1cc(O)c(O)c(O)c1` [EGCG, epigallocatechin gallate] the “killing senescent cells in fibroblasts” value [1] was “no effect” and the “cytotoxicity on young cells” value [2] was “showed cytotoxicity”.
